Key:
[1] = system: HT-29 human colon carcinoma cells; details: stated as known, not tested; cited from earlier work
[2] = Breaking strength of healing skin incisions in swine after Bleomycin with or without electroporation; format: in vivo
Protocol: (§1) In this experiment eighteen transcutaneous incisions were made into the dorsal muscles in each of eight pig test animals grouped 1-6. In study groups 1-5, longitudinal incisions were made while in group 6 the incisions were transverse to the longitudinal orientation of the muscle fiber. At each incision site, either nothing, normal saline, or Bleomycin in solution was injected such that injections were placed to a 1 cm depth and spaced at 1 cm distances from one another with three injections, one on each side of each incision within 3 cm of each other and one in the center of the incision. Bleomycin, an anti-cancer agent, was used wherein each injection consisted of 0.125 ml (4 units/ml saline). The incisions were then treated with bipolar pulses of 530 V, 100 μsec each, from a pulse generator using a 6-needle electrode array of 0.5 cm diameter (nominal field strength for each pulse was 1,233 V/cm).
(§2) Specifically, 8 male Yorkshire/Hampshire cross swine (40-50 kg) were acclimated 5-7 days prior to surgery. Incision locations were marked on the dorsum using sterile surgical markers. Each incision was 5 cm long and made to a depth of 5 mm into the muscle. All animals in groups 1-5 received 18 longitudinal incisions each, while animals in group 6 received transverse incisions, in accordance with Table I. Each study group comprised 24 incisions.
Injections of a total volume of 1.5 ml of saline or Bleomycin (6 U) were administered at 12 sites per incision, 6 in the muscle and 6 in the skin. Incisions treated with electroporation were electroporated using a 0.5 cm diameter, 1.5 cm long needle array. On each side of the muscle incision, electroporation was given 3 times in the central 3 cm of the incision, each electroporation site being 1 cm apart from the other. Skin was not electroporated. The epimysium was closed with 4-0 Vicryl absorbable interrupted sutures. The skin was closed with 4-0 nylon interrupted sutures. Swine were sacrificed at 2 d, 1 wk, 2 wks, or 3 wks following surgery. Histology specimens containing skin and at least 5 mm depth of underlying muscle were taken from the center of the incision and immediately placed in 10% neutral buffered formalin. An additional control specimen was taken from non-incised skin on the dorsum. After staining and sectioning, skin, subcutaneous tissue, and muscle were graded histologically on a 0-3 scale using the following parameters: Healing, Granulations/Fibrosis, PMN's, Lymphocytes, Histiocytes, Necrosis, Hemorrhage and Atypical Cells.
Mechanical testing was performed on strips of skin removed from the center of the incision at three different time points, namely, Days 7, 14, and 21. […] Breaking strength was determined by plotting the […] versus the strain for each incision up to the breaking point. […]

[3] = Histological evaluation of incision healing (skin, subcutaneous tissue, muscle) in swine; format: in vivo
Protocol: as §1, §2
Injections of a total volume of 1.5 ml of saline or Bleomycin (6 U) were administered at 12 sites per incision, 6 in the muscle and 6 in the skin. Incisions treated with electroporation were electroporated using a 0.5 cm diameter, 1.5 cm long needle array. On each side of the muscle incision, electroporation was given 3 times in the central 3 cm of the incision, each electroporation site being 1 cm apart from the other. Skin was not electroporated. The epimysium was closed with 4-0 Vicryl absorbable interrupted sutures. The skin was closed with 4-0 nylon interrupted sutures. Swine were sacrificed at 2 d, 1 wk, 2 wks, or 3 wks following surgery. […]

[4] = system: HT-29 human colon carcinoma cells; assay: Gross consistency of HT-29 tumors excised at various times after Bleomycin-EPT; format: in vivo, mice
Protocol: For this purpose, three additional cohort Groups 9, 10, and 11 were used.
The animals of Group 9 were anaesthetized followed by complete excision of the tumors. The tumors were examined for consistency and preserved in formalin for later histological evaluation, as were the tumor tissues of cohorts 10 and 11. Anaesthetized animals of cohort 10 were subjected to intratumoral administration of Bleomycin solution at a dose and volume as described above. EP was performed 10 minutes after drug administration. Tumors were excised 2 hrs after EP. Animals of cohort 11 were treated as those in cohort 10 except that their tumors were completely removed at 24 hrs after EP. All wounds were closed as described above. Results
With respect to cohorts 9-11, we observed that the consistency of the tumor changed progressively with time after treatment. […] At that time point surgical excision was somewhat difficult because the boundaries of the tumor were ill defined as compared to the solid tumor tissue mass of cohort 9 animals. […] These observations provide proof of the opportunity of using drug, such as Bleomycin or other anticancer agent, in combination with EPT as adjuvant or tumor debulking therapy that can additionally be used alone or in conjunction with other cancer therapies. For example, a tumor could be treated with Bleomycin-EPT, the disintegrated tumor material be removed by a simple minimally invasive procedure, and if desired, followed by conventional treatments such as radiation or chemotherapy, or other tumor therapy modalities. Easy removal of the liquefied tumor material can also allow the wound to heal faster and with fewer complications, especially in the case of large tumors.

[5] = system: HT-29 human colon carcinoma cells; assay: Tumor recurrence after surgery and Bleomycin electroporation therapy (EPT) in nude mice with HT-29 tumors; format: in vivo; details: for % efficacy (animals that did NOT experience tumor growth post treatment): three weeks after treatment
Protocol: In this example, a series of experiments were performed in mice wherein tumor recurrence rates were determined after surgery alone or after surgery and EPT. Specifically, this experiment comprises an in vivo study to establish the efficacy of EPT on surgical margin treatment in nude mice after subcutaneous introduction of HT-29 human colon carcinoma cells and resection of the tumors that arise from such introduction. The experiment was conducted under humane conditions with respect to treatment of the test animals.
The experimental design was as follows. Normal Athymic Nude female mice 4-6 weeks of age were placed in 8 groups of six mice each, except for Group 1 which comprised 10 animals and Group 3 comprising 7 animals. The HT-29 cell line is derived from a human colon carcinoma and is an aggressive fast-growing tumor in mice. In each group the animals received HT-29 human tumor cells in the form of two adjacent inocula of 5×10^6 cells using a 21 gauge needle and syringe. The HT-29 cell line was obtained from […] (#HTB-38), grown in McCoy's 5a medium (modified) with 1.5 mM L-glutamine adjusted to contain 2.2 g/L sodium bicarbonate, 90%, and fetal bovine serum, 10%. Cells were divided 1:2 to 1:4 on growth cycles until sufficient cells were available to use in this experiment.
Following inoculation the tumors became established at the site of the inoculations. The tumor volume on each animal was monitored regularly and calculated using the formula: Tumor volume=(a^2×b/2) where ‘a’ is the smallest diameter and ‘b’ is the largest diameter perpendicular to ‘a’. Tumors were measured three times per week starting from the day the tumors were palpable by hand. The tumors were allowed to progress until the size was between 500 and 1500 cubic millimeters. Surgical tumor removal, partial removal, or no removal was then performed in association with either EPT or no EPT. In these experiments EPT means treatment with Bleomycin and electroporation (EP). The EP, where performed, was conducted with one pulse cycle (i.e., 6 pulses at 4 Hz) per electrode insertion using a standard MedPulser generator (Genetronics, Inc. San Diego, Calif.) and an applicator with a disposable six needle array of 1 cm diameter, a distance between electrodes of 0.86 cm, and 1 cm needle length. […] The needle array was inserted percutaneously and essentially perpendicular to the surface of the flank of the mouse carrying the tumor. Alternatively, in those cases where the tumor was excised first, followed by i.v. injection of Bleomycin and then by EP, the needle electrode array was inserted percutaneously encompassing the surgical wound area (Groups 5-8).
Where Bleomycin was used in the experiment, it was injected at 4 U/ml saline (1U=1 mg) as uniformly as possible into tumor and margin tissues, as indicated, at a dose of 0.25 ml/cm^3 volume of tissue to be treated. Alternatively, where indicated, a corresponding amount of Bleomycin was injected into the tail vein.
The experiment used 8 cohorts of at least 6 mice each. Each cohort was subjected to a treatment regimen of a combination of any of EP, Bleomycin, saline instead of Bleomycin, complete tumor excision, partial tumor excision, and no tumor excision. Tables II and III disclose the treatment regimens.
For experiments on animals listed in Table II, the animals were anaesthetized, followed by removal or partial removal of the tumor as indicated, followed in turn by intraveneous (i.v.) injection of Bleomycin or saline. The Bleomycin dose was dependent on tumor size as described above. After 3 to 4 minutes, the animals indicated were treated with EP followed by closure of the wound with clips and surgical adhesive. In cohort 1, the entire tumor was surgically removed (see, for example FIGS. 12B and C) and the animals treated with Bleomycin and EP. In cohort 2, the tumors were removed from the animals but only saline was injected instead of Bleomycin and no EP was performed. […]

Bleomycin
antitumoral activity of Bleomycin administration without EP [1]: no significant antitumoral activity
reduction of breaking strength of skin incisions compared to non-Bleomycin groups ([2]; 1 week post-incision, all three Bleomycin treated groups (with or without EP)): 90%
wound strength (breaking point), difference between saline and Bleomycin with or without EP ([2]; three weeks post incision, FIG. 1): no substantial difference
breaking strength of skin incisions, difference between groups ([2]; week 2, longitudinal incisions, Bleomycin with or without EP (Groups 4, 5) vs Groups 1-3): no significant differences between Groups 1-5
breaking strength of skin incisions, difference between groups ([2]; week 3, Group 6, transverse incisions with Bleomycin and EP vs Groups 1-5): significantly lower breaking strength
muscle necrosis, Bleomycin plus EP vs Bleomycin ([3]; 2 weeks, difference disappeared by 3 weeks): significant increase in muscle necrosis
histological changes ([3]; day 7, Bleomycin groups): statistically significant changes
histology compared with controls ([3]; day 21, all Bleomycin injected samples): comparable with saline-injected controls
consistency of the tumor ([4]; cohort 10: excised two hours after i.t. Bleomycin-EP): softer, less well defined
consistency of the tumor ([4]; cohort 11: excised 24 hrs after i.t. Bleomycin-EP): completely softened
consistency of the tumor ([4]; cohorts 5 and 7: removed 15 minutes after i.t. Bleomycin-EP): softening of the tumor
% efficacy (animals that did NOT experience tumor growth post treatment) ([5]; Group 1: complete tumor excision, Bleomycin i.v., EP): 90%
tumor recurrence at the site of treatment ([5]; Group 1: complete tumor removal, Bleomycin-EP, 3 weeks post treatment (FIG. 12)): no tumor recurred
% efficacy (animals that did NOT experience tumor growth post treatment) ([5]; Group 3: partial tumor excision, Bleomycin i.v., EP): 67%
% efficacy (animals that did NOT experience tumor growth post treatment) ([5]; Group 5: Bleomycin intratumoral, EP, complete tumor excision 15 minutes later): 100%
% efficacy (animals that did NOT experience tumor growth post treatment) ([5]; Group 6: no tumor excision, Bleomycin intratumoral, EP): 80%
% efficacy (animals that did NOT experience tumor growth post treatment) ([5]; Group 7: Bleomycin intratumoral, EP, partial tumor excision 15 minutes later): 100%
tumor recurrence ([5]; Group 7: partial tumor removal, Bleomycin i.t. and EP, 3 weeks (FIG. 13)): no tumor recurrence
% efficacy (animals that did NOT experience tumor growth post treatment) ([5]; Group 8: no tumor excision, Bleomycin intratumoral, partial (off-centered) EP): 67%
tumor recurrence ([5]; cohorts 5 and 7: Bleomycin i.t. and EP, excision 15 minutes after treatment): no tumor recurrence

Reference: US9037230B2, “Method and device for treating microscopic tumors remaining in tissues following surgical resection” (OncoSec Medical Incorporated, priority 2006, dated 2015)
